Consider two substances from patent US20260008862A1, “Bispecific Anti-BCMA x Anti-CD3 Antibodies and Uses Thereof” (Regeneron Pharmaceuticals, Inc., priority 2018, published 2026).

Series [1] has as its system Jurkat/NFATLuc.3C7 cells + OPM-2 cells. The experiment in a line: Jurkat/NFATLuc reporter bioassay with OPM-2 cells. The series is classed as cell-based. Conditions: highest RLU / lowest RLU. The protocol:
Activity of the anti-BCMA×anti-CD3 bispecific antibodies were assessed in a Jurkat/NFATLuc reporter bioassay utilizing several cell lines with varying levels of BCMA surface expression. The Jurkat cells were engineered to express an NFAT-luciferase reporter (Jurkat/NFATLuc.3C7), and 50,000 Jurkat reporter cells were combined with 50,000 BCMA positive (Daudi, MM1-S, NCI-H929, OPM-2, RPMI-8226, MOLP-8, or Raji) or BCMA negative (HEK293) cells in Thermo Nunclon delta 96 well white microwell plates (Thermo Scientific, Cat #136102) in 50 ul of assay media (RPMI media with 10% FBS and 1% P/S/G). Three-fold serial dilutions of the BCMA×CD3 bispecific antibodies (mAb25441 D or mAb25442D), or a bivalent anti-BCMA antibody (mAb21581) were immediately added in 50 μL of assay buffer. The plates were gently agitated and incubated in a 37° C., 5% CO2 incubator for 4-6 hours. NFAT-Luciferase activity was determined using Promega One-Glo (Cat #E6130) and a Perkin Elmer Envision plate reader. RLU were plotted in GraphPad Prism using a four-parameter logistic equation over a 12-point response curve to calculate EC50 values. […] The signal to noise (S:N) is determined by taking the ratio of the highest RLU on the curve to the lowest.

Series [2] has as its system BCMA+ OPM-2-luciferase tumors. Kind of series: OPM-2-luciferase intravenous xenogenic tumor model, BLI (Example 15). Type of series: in vivo, mouse. Particulars: for tumor burden (in words): 0.4 mg/kg on days 21, 25 and 28. As for the experimental part: (§1) To determine the in vivo efficacy of anti-BCMA×anti-CD3 bispecific antibodies (Abs), a xenogenic tumor study was performed. On day 0, immunodeficient NOD.Cg-Prkdc^scidIl2rg^tm1Wji/SzJ (NSG) mice were intravenously administered 2×10^6 BCMA^+ OPM-2 human multiple myeloma tumor cells that were engineered to also express firefly luciferase (OPM-2-luciferase cells). On day 10, the mice were intraperitoneally injected with 4×10^6 human peripheral blood mononuclear cells (PBMC) from a normal, healthy donor. […] The mice were administered these Abs twice more on days 25 and 28, for a total of three doses. Tumor growth was assessed through day 61 by measuring tumor bioluminescence (BLI) in anesthetized animals. As a positive control, a group of mice (n=5) was given only OPM-2-luciferase cells, but not PBMC or antibody.
as §1, with “Implantation and measurement” for “To determine the in vivo efficacy”, “of” for “of anti-BCMA×anti-CD3 bispecific antibodies (Abs), a”, “tumors:” for “tumor study was performed.”
Measurement of xenogenic tumor growth: BLI imaging was used to measure tumor burden. Mice were injected IP with 150 mg/kg of the luciferase substrate D-luciferin suspended in PBS. Five minutes after this injection, BLI imaging of the mice was performed under isoflurane anesthesia using the Xenogen IVIS system. Image acquisition was carried out with the field of view at D, subject height of 1.5 cm, and medium binning level with automatic exposure time determined by the Living Image Software. BLI signals were extracted using Living Image software: regions of interest were drawn around each tumor mass and photon intensities were recorded as p/s/cm2/sr.

The test system of series [3] is primary human plasma cells (CD138+). The experiment in a line: Autologous T cell-mediated killing of human plasma cells. Type of series: cell-based. As for the experimental part:
The specific killing of enriched CD138^+ human or cynomolgus monkey plasma cells by unstimulated autologous T cells was assessed by flow cytometry. Human or cynomolgus bone marrow aspirates and blood were provided within 24 hours of harvest. CD138^+ plasma cells were enriched from bone marrow by positive selection using the EasySep™ Human CD138^+ Positive Selection kit according to the manufacturer's instructions. PBMC from whole blood were isolated by density separation. PBMC were labeled with 1 μM of Vybrant™ CFDA-SE fluorescent tracking dye. […] At the end of the culture, surviving CD138^+ plasma cells were analyzed by flow cytometry, utilizing fixable LIVE/DEAD dye and plasma cell specific cell surface markers. Percent viability was normalized to control condition (plasma cells in the presence of PBMC only). T cell activation was assessed by flow cytometry. Activation is reported as the percentage of CD2^+/CD4^+ or CD2^+/CD8^+/CD16^− T cells expressing CD25. Percent T cell activation was normalized to control condition (plasma cells in the presence of PBMC only).

In another series the test system is MC38/BCMA tumors. The experiment in a line: Syngenic MC38/BCMA tumor model, combination with anti-PD-1 (Example 20). Particulars: REGN5458 0.04 or 0.24 mg/kg plus anti-mouse PD-1 (Clone RPM1-14) 4 mg/kg. The series is classed as in vivo. As for the experimental part:
Implantation and measurement of syngenic tumors: C57BL/6 mice that express human CD3deg in place of murine CD3deg (CD3-humanized mice) were subcutaneously implanted with 1×10^6 MC38 colon carcinoma cells that have been engineered to express full-length human BCMA (MC38/BCMA).
The mice were administered these Abs twice more on days 7 and 11 for a total of three doses, and tumor growth was assessed throughout the experiment.
Calculation of syngenic tumor growth and inhibition: In order to determine tumor volume by external caliper, the greatest longitudinal diameter (length in mm) and the greatest transverse diameter (width in mm) were determined. Tumor volumes based on caliper measurements were calculated by the formula: Volume (mm^3)=(length×width^2)/2.

Where two headings read alike, the source gives them in different places.

Turning to “REGN5458: anti-BCMA×anti-CD3 bispecific antibody: BCMA HCVR of mAb21581 (SEQ 66), CD3 HCVR of mAb7221G (SEQ 90), common LCVR SEQ 82”, in series [1], the “S:N” value amounted to 8. Also, the “tumor burden (in words)” value in series [2] is reported as “reduced tumor burdens to background levels in the majority of animals”. The “Cytotoxic Kill Max % Cytotoxicity” value is on record as 91% in series [3] (Human Donor 1 plasma cells, autologous primary human T cells, E:T 10:1, 72 hours) and 89% in series [3] (Human Donor 2 plasma cells, autologous primary human T cells, E:T 10:1, 72 hours). Moreover, the EC50 in series [3] (Human Donor 1 plasma cells, autologous primary human T cells, read-out: T Cell Activation (% CD25 Upregulation) CD8+ T cells EC50) was determined as 0.214 nM; in series [3] (Human Donor 2 plasma cells, autologous primary human T cells, E:T 10:1, 72 hours, read-out: Cytotoxic Kill EC50) it was 0.191 nM; in series [3] (human donor 1, CD25, read-out: CD8+ T cell activation EC50), 0.214 nM; in series [3] (human donor 1, read-out: cytotoxicity EC50), 0.0428 nM; in series [3] (human donor 2, CD25, read-out: CD8+ T cell activation EC50), 0.86 nM; in series [3] (human donor 2, read-out: cytotoxicity EC50) it was 0.191 nM. For the same substance, in series [3] (Human Donor 2 plasma cells, autologous primary human T cells, maximum), the “T Cell Activation (% CD25 Upregulation) CD8+ T cells % Activation” value stood at 36%. Moreover, the maximum percent cytotoxicity in series [3] (human donor 1) amounted to 91%; in series [3] (human donor 2) it was 89%. Further, the “maximum percent CD8+ T cell activation” value in series [3] (human donor 2) worked out at 36%. Also, in the series on MC38/BCMA tumors, the “anti-tumor efficacy of the combination (in words)” value is reported as “superior anti-tumor efficacy”.

“REGN5459: anti-BCMA×anti-CD3 bispecific antibody: BCMA HCVR of mAb21581 (SEQ 66), CD3 HCVR of mAb7221G20 (SEQ 98), common LCVR SEQ 82”: the “Radiance [p/s/cm2^2/sr] 5 days post-implantation (mean ± SEM)” value in series [2] (0.4 mg/kg group, 5 days post-implantation (before first dose on day 21)) was 5.09E+05 ± 3.56E+04 p/s/cm2^2/sr. For the same substance, in series [2] (0.4 mg/kg group, 11 days post-implantation (before first dose on day 21)), the “Radiance [p/s/cm2^2/sr] 11 days post-implantation (mean ± SEM)” value stood at 6.45E+05 ± 2.39E+04 p/s/cm2^2/sr. In addition, the “Radiance [p/s/cm2^2/sr] 20 days post-implantation (mean ± SEM)” value in series [2] (0.4 mg/kg group, 20 days post-implantation (before first dose on day 21)) stood at 2.13E+06 ± 1.69E+05 p/s/cm2^2/sr. Also, in series [2], the “tumor burden (in words)” value is given as “reduced tumor burdens to background levels in the majority of animals”. For the same substance, in series [2] (0.4 mg/kg, 26 days post-implantation), the “Radiance [p/s/cm2^2/sr] 26 days post-implantation (mean ± SEM)” value is 1.28E+06 ± 7.36E+05 p/s/cm2^2/sr. Moreover, the “Radiance [p/s/cm2^2/sr] 31 days post-implantation (mean ± SEM)” value in series [2] (0.4 mg/kg, 31 days post-implantation) is 1.98E+06 ± 1.36E+06 p/s/cm2^2/sr. Also, the “Radiance [p/s/cm2^2/sr] 34 days post-implantation (mean ± SEM)” value in series [2] (0.4 mg/kg, 34 days post-implantation) is recorded as 4.24E+06 ± 3.69E+06 p/s/cm2^2/sr. For the same substance, the “Radiance [p/s/cm2^2/sr] 38 days post-implantation (mean ± SEM)” value in series [2] (0.4 mg/kg, 38 days post-implantation) is on record as 3.21E+06 ± 2.52E+06 p/s/cm2^2/sr. Also, the “Radiance [p/s/cm2^2/sr] 40 days post-implantation (mean ± SEM)” value in series [2] (0.4 mg/kg, 40 days post-implantation) came to 3.84E+06 ± 3.34E+06 p/s/cm2^2/sr. Besides, the “Radiance [p/s/cm2^2/sr] 47 days post-implantation (mean ± SEM)” value in series [2] (0.4 mg/kg, 47 days post-implantation) is reported as 7.34E+05 ± 2.62E+04 p/s/cm2^2/sr. Further, in series [2] (0.4 mg/kg, 54 days post-implantation), the “Radiance [p/s/cm2^2/sr] 54 days post-implantation (mean ± SEM)” value was determined as 6.41E+05 ± 5.96E+04 p/s/cm2^2/sr. Moreover, the “Radiance [p/s/cm2^2/sr] 61 days post-implantation (mean ± SEM)” value in series [2] (0.4 mg/kg, 61 days post-implantation) stood at 6.03E+05 ± 5.29E+04 p/s/cm2^2/sr.
